Broadly, the IC50 is the concentration at which inhibition is half-maximal. Usually AUC(0-t) stands for the area under the concentration-time curve up to a stated or last time point. The low end stands for less exposure, the high end for more exposure. The Cmax is the peak of the concentration-time curve. In general, Tmax refers to the time from dosing to the highest level.

The results in this text go back to EP4640679A1, “SALT FORM AND CRYSTAL FORM OF PYRIDINE MULTI-SUBSTITUTED COMPOUND AND PREPARATION METHOD THEREFOR” (Usynova Pharmaceuticals Ltd., priority 2022, dated 2024).

Series [1] has as its target T1, TYK2 protein (His-TVMV-TYK2 JH2 (575-869)) (Homo sapiens, UniProt P29597).
T1 construct: TYK2 protein (His-TVMV-TYK2 JH2 (575-869))
The series is described as follows: Tyk2 JH2 enzyme activity test (HTRF tracer displacement). Type of series: binding. On the procedure: To a buffer solution containing 20 mM of Hepes pH 7.5, 10 mM of MgCl2, 0.015% of Brij-35, 2 mM of DTT and 50 µg/ mL of BSA were added 0.5 nM of TYK2 protein (His-TVMV-TYK2 JH2 (575-869)), 0.2 nM of terbium-labeled His antibody, fluorescein-labeled kinase tracer at the relevant Kd value, and the test compound. The test system was incubated at room temperature for 90 minutes. Subsequently, the generated HTRF (homogeneous time-resolved fluorescence) signal, i.e., the ratio of the fluorescence intensity of the fluorescein acceptor (520 nm) and the terbium donor (495 nm) at the emission wavelength, was measured on an Envision plate reader, and the IC50 value was calculated based on this. The results of in vitro enzyme activity assay of the free base of the compound of the present disclosure are shown in Table 3: Table 3: In vitro enzyme activity test results of the compound of the present disclosure (IC50)
Background: TR-FRET usually uses a lanthanide donor and a delayed reading to cut background.

Series [2] has as its system IFNα-stimulated phosphorylated STAT1. The series is described as follows: IFNα-stimulated phosphorylation STAT1 assay in hPBMC (flow cytometry, CD4+ T cells). Format: cell-based, Human. The protocol:
Human peripheral blood mononuclear cells (hPBMC) were seeded at a cell density of 1x10^5 cells/well and placed in an incubator at 37°C for 90 minutes. Then different concentrations of compounds were added to the cells, wherein the concentration range of each compound started from 2 µM, which was serially diluted 5-fold to obtain a total of 8 concentration gradients. The compounds and cells were incubated at 37 °C for 30 minutes. hPBMC were stimulated with IFN-a (1000 U/ml), and then the level of phosphorylated STAT1 in CD4+ T cells was detected by flow cytometry to evaluate the inhibitory activity of the compound on the IFN-α pathway. The results of the in vitro cell activity assay of the free base of the compound of the present disclosure are shown in Table 4: Table 4: In vitro cell activity test results of the compound of the present disclosure (IC50)
In general terms: A flow cytometer gives signals particle by particle.

Series [3] in a line: Pharmacokinetic study, oral administration, mouse. Type of series: in vivo, CD-1 mice. To be noted: plasma, 10 mg/kg, 10 mpk. The protocol:
(§1) The purpose of this experiment is to study the pharmacokinetics of the test substance in the plasma of male CD-1 mice, SD rats and […] after intravenous injection and oral administration.
(§2) The animals were randomly divided into two groups, with 2 males in each group. The compounds were formulated into the specified formulations (the vehicle was 5 mg/mL of 10% sulfobutyl ether-β-cyclodextrin), and the oral formulations were clear or homogeneous suspensions.
(§3) Whole blood samples were collected from the animals by jugular vein puncture or saphenous vein at 5, 15, 30 minutes, 1, 2, 4, 8, and 24 hours after administration. The whole blood samples were added into centrifuge tubes containing anticoagulants, and centrifuged at 3000g for 15 minutes at 4°C. The supernatant plasma was collected and quickly frozen on dry ice and then stored in a refrigerator at -70 ± 10°C until LC-MS/MS analysis.
(§4) The pharmacokinetic software WinNonlin™ Version 6.3.0 (Pharsight, Mountain View, CA) was used to process the plasma drug concentration data of the compound in a non-compartmental model. The peak concentration (Cmax) and time to peak (Tmax) as well as last measurable time point were directly obtained from the plasma drug concentration-time graph.
(§5) The following pharmacokinetic parameters were calculated using the log-linear trapezoidal method: plasma clearance rate (CL), volume of distribution (Vd), elimination phase half-life (T1/2), mean residence time of drug in vivo from 0 to the terminal time point (MRT0-last), mean residence time of drug in vivo from 0 to infinite time (MRT0-inf), area under the time-plasma concentration curve from 0 to the terminal time point (AUC0-last), area under the time-plasma concentration curve from 0 to infinite time (AUC0-inf), and bioavailability (F). The experimental results of the present disclosure are shown in Table 5: Table 5: Pharmacokinetic test results

A short description of series [4]: Pharmacokinetic study, oral administration, rat. Format: in vivo, SD rats. To be noted: plasma, 30 mg/kg, 30 mpk. The protocol: as §1, §2, §3, §4, §5
The nature of series [5]: Pharmacokinetic study, oral administration, dog. Type of series: in vivo. To be noted: plasma, 25 mg/kg, 25 mpk. On the procedure:
as §1, §2, §3, §4, §5

T1 sequence (P29597 575-869, species assumed): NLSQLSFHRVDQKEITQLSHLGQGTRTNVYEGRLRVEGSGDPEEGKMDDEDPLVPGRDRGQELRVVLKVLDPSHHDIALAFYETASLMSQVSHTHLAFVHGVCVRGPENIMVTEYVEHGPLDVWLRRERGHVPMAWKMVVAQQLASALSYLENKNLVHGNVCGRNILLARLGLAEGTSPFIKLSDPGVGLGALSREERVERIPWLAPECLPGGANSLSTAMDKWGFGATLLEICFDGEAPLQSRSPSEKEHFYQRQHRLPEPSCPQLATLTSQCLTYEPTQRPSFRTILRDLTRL

As to `[2H]C([2H])([2H])CC(=O)c1cnc(NC(=O)C2CC2)cc1Nc1cccc(-c2cnc(N=S(C)(C)=O)cn2)c1OC`, the IC50 in series [1] (HTRF, 90 minutes at room temperature) came to 0.04 nM; in series [2] (Homo sapiens, CD4+ T, read-out: IFNα-stimulated phosphorylated STAT1 (IC50 nM)) it was 1.1 nM. The “inhibitory activity against Tyk2 JH2” value in series [1] (conclusion in words) is reported as “strong inhibitory activity”. Besides, in series [2] (conclusion in words), the “Tyk2-related cellular activity on IFNα-stimulated phosphorylated STAT1” value is “strong Tyk2-related cellular activity”.
For `[2H]C([2H])([2H])CC(=O)c1cnc(NC(=O)C2CC2)cc1Nc1cccc(-c2cnc(N=S(C)(C)=O)cn2)c1OC` [Compound of formula (I)], in series [3], the AUC(0-t) worked out at 76 µM·h, the Cmax was determined as 32.4 µM, the Tmax was found to be 30 min and the bioavailability was found to be 81%. In series [4], the AUC(0-t) stood at 231 µM·h, the concentration peaked (Cmax) at 44.5 µM, the Tmax amounted to 45 min and the bioavailability turned out to be 65%. Also, in series [5], the AUC(0-t) is 66.5 µM·h, the Cmax is 16.8 µM, the Tmax was found to be 120 min and the bioavailability amounted to 103%.
